Values quoted from earlier work in US20120157536A1, “COMPOSITION FOR TRANSDERMAL ADMINISTRATION OF NON-STEROIDAL ANTI-FLAMMATORY DRUG” (Polytherapeutics, Inc., priority 2010, published 2012).

O=C(O)Cc1ccccc1Nc1c(Cl)cccc1Cl [Diclofenac, 2-(2,6-dichloro-anilino)-benzeneacetic acid]
Diclofenac Clearance, Cl (Goodman & Gilman): 4.2 mL/min/kg
Minimum effective diclofenac blood concentration (Nishihata et al. 1988): 50 ng/mL
